Experimental findings from patent US20050250784A1 (Miikana Therapeutics Corporation, priority 2004, published 2005) are described below.

As usually defined, the inhibition is the share of the control response that was lost under treatment. Read a low inhibition as little suppression.

The first experiment deals with MCF7 cells. The experiment can be described thus: Whole cell cytotoxicity assay: Sulforhodamine B. It counts as cell-based, Human. The settings on record: Homo sapiens; compound concentration 100 μM; MCF7 cell growth, 48 hours with drug, SRB staining. Here is the method:
The following procedure can be found on the Developmental Therapeutics Program NCI/NIH web site at http://dtp.nci.nih.gov/brancehes/btb/ivclsp.html.
1. Human tumor cell lines of HT29, A549 and MCF7 are grown in DMEM containing 10% fetal bovine serum and 2 mM L-glutamine. Cells are plated in a 96 well plate at a density of 5000 cells per well in 100 uL of growth medium and incubated at 37° C., 5% CO2, for 24 hours prior to the addition of experimental compounds.
2. Experimental drugs are solubilized in DMSO for a final concentration of 20 mM immediately prior to use. Drugs are further diluted in growth media for a total of nine drug concentrations and a growth control. At the 24 hour time point, one plate of cells is fixed in situ with TCA as a measurement of the cell population at time zero, or the time of drug addition.
3. The plates are further incubated with drug for an additional 48 hours.
4. The cells are fixed in situ by gently aspirating off the culture media and then adding 50 uL of ice cold 10% TCA per well and incubated at 4° C. for 60 minutes. The plates are washed with tap water five times and allowed to air dry for 5 minute.
5. 50 ul of a 0.4% (w/v) Sulforhodamine B solution in 1% (v/v) acetic acid is added per well and incubated for 30 minutes at room temperature.
6. Following staining, plates are washed five times with 1% acetic acid to remove any unbound dye and then allowed to air dry for 5 minutes.
7. Stain is solubilized with 100 uL of 10 mM Tris pH 10.5 per well and placed on an orbital rotator for 5 minutes.
8. Absorbance is read at 570 nm.
`O=C(NO)c1cnc(N2CCN(S(=O)(=O)c3ccc(-c4csc(CN5CCCC5)c4)cc3)CC2)s1` [Example 307, 2-{4-[4-(2-(pyrrolidin-1-ylmethyl)thien-4-yl)phenylsulfonyl]piperazin-1-yl}-1,3-thiazole-5-carboxylic acid hydroxyamide] registered an inhibition at 100 µM of 99%.

The compound `CN(C)Cc1ccoc1-c1ccc(S(=O)(=O)N2CCN(c3ncc(C(=O)NO)s3)CC2)cc1` [Example 308, 2-(4-{4-[3-((dimethylamino)-methyl)-2-furyl]phenylsulfonyl}piperazin-1-yl)-1,3-thiazole-5-carboxylic acid hydroxyamide] gave an inhibition at 100 µM of 99%.

On to `O=C(NO)c1cnc(N2CCN(S(=O)(=O)c3ccc(-c4cc(CN5CCCC5)co4)cc3)CC2)s1` [Example 309], for which the inhibition at 100 µM is 83%. For the compound `CN(C)Cc1ccsc1-c1ccc(S(=O)(=O)N2CCN(c3ncc(C(=O)NO)s3)CC2)cc1` [Example 310], the inhibition at 100 µM turned out to be 98%. On the same count and under the same terms, under `CN(CCO)Cc1cccc(-c2ccc(S(=O)(=O)N3CCN(c4ncc(C(=O)NO)s4)CC3)cc2)c1` [Example 311, 2-{4-[3′-{[(2-hydroxyethyl)(methyl)amino]methyl}-1,1′-biphenylsulfonyl]piperazin-1-yl}-1,3-thiazole-5-carboxylic acid hydroxyamide] stands 98%; under `O=C(NO)c1cnc(N2CCN(S(=O)(=O)c3ccc(-c4cccc(CN(CCO)CCO)c4)cc3)CC2)s1` [Example 312, 2-{4-[3′-{[bis(2-hydroxyethyl)amino]methyl}-1,1′-biphenylsulfonyl]piperazin-1-yl}-1,3-thiazole-5-carboxylic acid hydroxyamide], 85%; under `O=C(NO)c1cnc(N2CCN(S(=O)(=O)c3ccc(-c4cccc(CN5CC=CCC5)c4)cc3)CC2)s1` [Example 313, 2-{4-[3′-(3,6-dihydropyridin-1(2H)-ylmethyl)-1,1-biphenylsulfonyl]piperazin-1-yl}-1,3-thiazole-5-carboxylic acid hydroxyamide], 92%. Regarding `CCCCN(C)Cc1cccc(-c2ccc(S(=O)(=O)N3CCN(c4ncc(C(=O)NO)s4)CC3)cc2)c1` [Example 314, 2-{4-[3′-{[(butyl)(methyl)amino]methyl}-1,1′-biphenylsulfonyl]piperazin-1-yl}-1,3-thiazole-5-carboxylic acid hydroxyamide], the inhibition at 100 µM was determined as 97%. `O=C(NO)c1cnc(N2CCN(S(=O)(=O)c3ccc(-c4cccc(CN5CCNCC5)c4)cc3)CC2)s1` [Example 315, 2-{4-[3′-((piperazin-1-yl)methyl)-1,1′-biphenylsulfonyl]piperazin-1-yl}-1,3-thiazole-5-carboxylic acid hydroxyamide]: the inhibition at 100 µM came to 95%. `COCCN(C)Cc1cccc(-c2ccc(S(=O)(=O)N3CCN(c4ncc(C(=O)NO)s4)CC3)cc2)c1` [Example 316, 2-{4-[3′-{[(2-methoxyethyl)(methyl)amino]methyl}-1,1′-biphenylsulfonyl]piperazin-1-yl}-1,3-thiazole-5-carboxylic acid hydroxyamide]: the inhibition at 100 µM was 97%. Turning to `C=CCN(CC=C)Cc1cccc(-c2ccc(S(=O)(=O)N3CCN(c4ncc(C(=O)NO)s4)CC3)cc2)c1` [Example 317], the inhibition at 100 µM was found to be 66%. The compound `CNCc1cccc(-c2ccc(S(=O)(=O)N3CCN(c4ncc(C(=O)NO)s4)CC3)cc2)c1` [Example 318, 2-{4-[3′-{[methylamino]methyl}-1,1′-biphenylsulfonyl]piperazin-1-yl}-1,3-thiazole-5-carboxylic acid hydroxyamide] came in with an inhibition at 100 µM of 86%.

In turn, `CC(=O)NCc1cccc(-c2ccc(S(=O)(=O)N3CCN(c4ncc(C(=O)NO)s4)CC3)cc2)c1` [Example 319, 2-{4-[3′-{[N-acetylamino]methyl}-1,1′-biphenylsulfonyl]piperazin-1-yl}-1,3-thiazole-5-carboxylic acid hydroxyamide] yielded an inhibition at 100 µM of 89%. As for `COCc1cccc(-c2ccc(S(=O)(=O)N3CCN(c4ncc(C(=O)NO)s4)CC3)cc2)c1` [Example 320, 2-{4-[3′-{methoxymethyl}-1,1′-biphenylsulfonyl]piperazin-1-yl}-1,3-thiazole-5-carboxylic acid hydroxyamide], testing at 100 µM gave an inhibition of 92%. With `O=C(NO)c1cnc(N2CCN(S(=O)(=O)c3ccc(-c4ccccc4CN4CCCC4)cc3)CC2)s1` [Example 321, 2-{4-[2′-{pyrrolidin-1-ylmethyl}-1,1′-biphenylsulfonyl]piperazin-1-yl]-1,3-thiazole-5-carboxylic acid hydroxyamide], the inhibition at 100 µM was 95%.

`O=C(NO)c1cnc(N2CCN(S(=O)(=O)c3cccc(OC(F)F)c3)CC2)s1` [Example 323, 2-(4-{[3-(difluoromethoxy)phenyl]sulfonyl}piperazin-1-yl)-1,3-thiazole-5-carboxylic acid hydroxyamide]: the inhibition at 100 µM was determined as 100%. In the case of `Cc1ccc(S(=O)(=O)N2CCN(c3ncc(C(=O)NO)s3)CC2)cc1[N+](=O)[O-]` [Example 324, 2-{4-[(4-methyl-3-nitrophenyl)sulfonyl]piperazin-1-yl}-1,3-thiazole-5-carboxylic acid hydroxyamide], 100 µM produced 96% inhibition. `COc1ccc(OC)c(S(=O)(=O)N2CCN(c3ncc(C(=O)NO)s3)CC2)c1` [Example 325, 2-{4-[(2,5-dimethoxyphenyl)sulfonyl]piperazin-1-yl}-1,3-thiazole-5-carboxylic acid hydroxyamide] gave an inhibition at 100 µM of 98%. In turn, `Cc1ccc(C)c(S(=O)(=O)N2CCN(c3ncc(C(=O)NO)s3)CC2)c1` [Example 326, 2-{4-[(2,5-dimethylphenyl)sulfonyl]piperazin-1-yl}-1,3-thiazole-5-carboxylic acid hydroxyamide] came in with an inhibition at 100 µM of 98%.

In turn, `Cc1ccc(S(=O)(=O)N2CCN(c3ncc(C(=O)NO)s3)CC2)c(CN2CCCC2)c1` [Example 327, 2-(4-{[2-(pyrrolidin-1-ylmethyl)-4-methylphenyl]sulfonyl}piperazin-1-yl)-1,3-thiazole-5-carboxylic acid hydroxyamide] showed an inhibition at 100 µM of 92%.

For `O=C(NO)c1cnc(N2CCN(S(=O)(=O)c3ccc(N4CCCC4)c(F)c3)CC2)s1` [Example 328, 2-(4-{[3-fluoro-4-(pyrrolidin-1-yl)phenyl]sulfonyl}piperazin-1-yl)-1,3-thiazole-5-carboxylic acid hydroxyamide], the inhibition at 100 µM worked out at 96%. On to `O=C(NO)c1cnc(N2CCN(S(=O)(=O)c3ccc(N4CCCCC4)cc3)CC2)s1` [Example 329, 2-(4-{[4-(piperidin-1-yl)phenyl]sulfonyl}piperazin-1-yl)-1,3-thiazole-5-carboxylic acid hydroxyamide], for which the inhibition at 100 µM turned out to be 97%. `O=C(NO)c1cnc(N2CCN(S(=O)(=O)c3ccc(N4CCOCC4)cc3)CC2)s1` [Example 330, 2-(4-{[4-(morpholin-4-yl)phenyl]sulfonyl}piperazin-1-yl)-1,3-thiazole-5-carboxylic acid hydroxyamide] gave an inhibition at 100 µM of 91%. `O=C(NO)c1cnc(N2CCN(S(=O)(=O)C(F)(F)F)CC2)s1` [Example 331, 2-{4-[(trifluoromethyl)sulfonyl]piperazin-1-yl}-1,3-thiazole-5-carboxylic acid hydroxyamide] showed an inhibition at 100 µM of 76%. On to `CCS(=O)(=O)N1CCN(c2ncc(C(=O)NO)s2)CC1` [Example 332, 2-{4-[ethylsulfonyl]piperazin-1-yl}-1,3-thiazole-5-carboxylic acid hydroxyamide], for which 100 µM produced 30% inhibition.

Staying with this experiment, now noted: compound concentration 100 μM; MCF7 cell growth, 48 hours with drug, SRB staining.
“2-(4-{4-[(3-(pyrrolidin-1-ylmethyl)-2-furyl]phenylsulfonyl}piperazin-1-yl)-1,3-thiazole-5-carboxylic acid hydroxyamide [Example 283]”: the “% inhibition MCF7 cells @ 100 μM” value came to 98%. For the compound “2-[4-(naphtha-2-yl-4-sulfonyl)-piperazin-1-yl]-thiazole-5-carboxylic acid hydroxyamide [Example 201]”, the “% inhibition MCF7 cells @ 100 μM” value was determined as 95%. On to `Cc1ccc(S(=O)(=O)N2CCN(c3ncc(C(=O)NO)s3)CC2)cc1` [Example 204, 2-[4-(4-toluene-4-sulfonyl)-piperazin-1-yl]-thiazole-5-carboxylic acid hydroxyamide], for which the “% inhibition MCF7 cells @ 100 μM” value came out at 95.4%.
